Experimental data published in PubChem BioAssay (NCI).
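How tested: cells in 96-well plates exposed to compound for 48 hours at five concentrations. Definition used: TGI = concentration required for complete inhibition of growth.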

How the values were obtained:
Test in all cases: NCI-60 cell line screen, 48 h
786-0 renal = tested on: 786-0 renal
A549 NSCLC = tested on: A549 NSCLC
ACHN renal = tested on: ACHN renal
BT-549 breast = tested on: BT-549 breast
CAKI-1 renal = tested on: CAKI-1 renal
CCRF-CEM leukemia = tested on: CCRF-CEM leukemia
COLO 205 colon = tested on: COLO 205 colon
DU-145 prostate = tested on: DU-145 prostate
EKVX NSCLC = tested on: EKVX NSCLC
HCC-2998 colon = tested on: HCC-2998 colon
HCT-116 colon = tested on: HCT-116 colon
HCT-15 colon = tested on: HCT-15 colon
HL-60(TB) leukemia = tested on: HL-60(TB) leukemia
HOP-62 NSCLC = tested on: HOP-62 NSCLC
HOP-92 NSCLC = tested on: HOP-92 NSCLC
HS 578T breast = tested on: HS 578T breast
HT29 colon = tested on: HT29 colon
IGROV1 ovarian = tested on: IGROV1 ovarian
K-562 leukemia = tested on: K-562 leukemia
KM12 colon = tested on: KM12 colon
LOX IMVI melanoma = tested on: LOX IMVI melanoma
M14 melanoma = tested on: M14 melanoma
MALME-3M melanoma = tested on: MALME-3M melanoma
MCF7 breast = tested on: MCF7 breast
MDA-MB-231 breast = tested on: MDA-MB-231 breast
MDA-MB-435 = tested on: MDA-MB-435
MDA-N = tested on: MDA-N
MOLT-4 leukemia = tested on: MOLT-4 leukemia
NCI-H226 lung = tested on: NCI-H226 lung
NCI-H23 lung = tested on: NCI-H23 lung
NCI-H460 lung = tested on: NCI-H460 lung
NCI/ADR-RES ovarian = tested on: NCI/ADR-RES ovarian
OVCAR-3 ovarian = tested on: OVCAR-3 ovarian
OVCAR-4 ovarian = tested on: OVCAR-4 ovarian
OVCAR-5 ovarian = tested on: OVCAR-5 ovarian
OVCAR-8 ovarian = tested on: OVCAR-8 ovarian
PC-3 prostate = tested on: PC-3 prostate
RPMI-8226 leukemia = tested on: RPMI-8226 leukemia
RXF 393 renal = tested on: RXF 393 renal
SF-268 CNS = tested on: SF-268 CNS
SF-295 CNS = tested on: SF-295 CNS
SF-539 CNS = tested on: SF-539 CNS
SK-MEL-2 melanoma = tested on: SK-MEL-2 melanoma
SK-MEL-28 melanoma = tested on: SK-MEL-28 melanoma
SK-MEL-5 melanoma = tested on: SK-MEL-5 melanoma
SK-OV-3 ovarian = tested on: SK-OV-3 ovarian
SN12C renal = tested on: SN12C renal
SNB-19 CNS = tested on: SNB-19 CNS
SNB-75 CNS = tested on: SNB-75 CNS
SR leukemia = tested on: SR leukemia
SW-620 colon = tested on: SW-620 colon
T-47D breast = tested on: T-47D breast
TK-10 renal = tested on: TK-10 renal
U251 CNS = tested on: U251 CNS
UACC-257 melanoma = tested on: UACC-257 melanoma
UACC-62 melanoma = tested on: UACC-62 melanoma
UO-31 renal = tested on: UO-31 renal
A498 renal = tested on: A498 renal
NCI-H522 lung = tested on: NCI-H522 lung

With Cc1cc(NS(=O)(=O)c2ccc(NC(NC(=O)C(C(F)(F)F)C(F)(F)F)(C(F)(F)F)C(F)(F)F)cc2)no1 the TGI (786-0 renal) was over 100 µM, the TGI (A549 NSCLC) was over 100 µM and the TGI (ACHN renal) was over 100 µM. For the same compound, the TGI (BT-549 breast) was over 100 µM, the TGI (CAKI-1 renal) was over 100 µM and the TGI (CCRF-CEM leukemia) was over 100 µM. It also gave a TGI (COLO 205 colon) of over 100 µM, a TGI (DU-145 prostate) of over 100 µM and a TGI (EKVX NSCLC) of over 100 µM. The TGI (HCC-2998 colon) was over 100000 nM, the TGI (HCT-116 colon) was over 100 µM and the TGI (HCT-15 colon) was over 100 µM. For the same compound, the TGI (HL-60(TB) leukemia) was over 100 µM, the TGI (HOP-62 NSCLC) was over 100 µM and the TGI (HOP-92 NSCLC) was over 100 µM. The TGI (HS 578T breast) was over 100 µM, the TGI (HT29 colon) was over 100 µM and the TGI (IGROV1 ovarian) was over 100 µM. For the same compound, the TGI (K-562 leukemia) was over 100 µM, the TGI (KM12 colon) was over 100 µM and the TGI (LOX IMVI melanoma) was over 100 µM. The TGI (M14 melanoma) was over 100 µM, the TGI (MALME-3M melanoma) was over 100 µM and the TGI (MCF7 breast) was over 100 µM. The TGI (MDA-MB-231 breast) was over 100 µM, the TGI (MDA-MB-435) was over 100 µM and the TGI (MDA-N) was over 100 µM. For the same compound, the TGI (MOLT-4 leukemia) was over 100 µM, the TGI (NCI-H226 lung) was over 100 µM and the TGI (NCI-H23 lung) was over 100 µM. The TGI (NCI-H460 lung) was over 100 µM, the TGI (NCI/ADR-RES ovarian) was over 100 µM and the TGI (OVCAR-3 ovarian) was over 100 µM. For the same compound, the TGI (OVCAR-4 ovarian) was over 100 µM, the TGI (OVCAR-5 ovarian) was over 100 µM and the TGI (OVCAR-8 ovarian) was over 100 µM. For the same compound, the TGI (PC-3 prostate) was over 100 µM, the TGI (RPMI-8226 leukemia) was over 100 µM and the TGI (RXF 393 renal) was over 100 µM. It also gave a TGI (SF-268 CNS) of over 100 µM, a TGI (SF-295 CNS) of over 100 µM and a TGI (SF-539 CNS) of over 100 µM. For the same compound, the TGI (SK-MEL-2 melanoma) was over 100 µM, the TGI (SK-MEL-28 melanoma) was over 100 µM and the TGI (SK-MEL-5 melanoma) was over 100 µM. It also gave a TGI (SK-OV-3 ovarian) of over 100 µM, a TGI (SN12C renal) of over 100 µM and a TGI (SNB-19 CNS) of over 100 µM. For the same compound, the TGI (SNB-75 CNS) was over 100 µM, the TGI (SR leukemia) was over 100 µM and the TGI (SW-620 colon) was over 100 µM. It also gave a TGI (T-47D breast) of over 100 µM, a TGI (TK-10 renal) of over 100 µM and a TGI (U251 CNS) of over 100 µM. It also gave a TGI (UACC-257 melanoma) of over 100 µM, a TGI (UACC-62 melanoma) of over 100 µM and a TGI (UO-31 renal) of over 100 µM.

C[n+]1c(/C=C/c2ccc(O)c3ncccc23)[se]c2ccccc21 was tested, and the TGI (786-0 renal) was 24.4 µM, the TGI (A498 renal) was 30.5 µM and the TGI (A549 NSCLC) was 42 µM. The TGI (ACHN renal) was 8.54 µM, the TGI (BT-549 breast) was 35 µM and the TGI (CAKI-1 renal) was 26 µM. For the same compound, the TGI (CCRF-CEM leukemia) was 4.22 µM, the TGI (COLO 205 colon) was 22.2 µM and the TGI (DU-145 prostate) was 16.8 µM. For the same compound, the TGI (EKVX NSCLC) was 28 µM, the TGI (HCT-116 colon) was 11.4 µM and the TGI (HCT-15 colon) was 17.6 µM. For the same compound, the TGI (HL-60(TB) leukemia) was 7.66 µM, the TGI (HOP-62 NSCLC) was 19.1 µM and the TGI (HOP-92 NSCLC) was 22.3 µM. The TGI (HS 578T breast) was 63.5 µM, the TGI (HT29 colon) was 20.7 µM and the TGI (IGROV1 ovarian) was over 37.8 µM. For the same compound, the TGI (K-562 leukemia) was 44.4 µM, the TGI (KM12 colon) was 25.2 µM and the TGI (LOX IMVI melanoma) was 9.08 µM. The TGI (M14 melanoma) was 17.8 µM, the TGI (MALME-3M melanoma) was 20.3 µM and the TGI (MCF7 breast) was 14.8 µM. The TGI (MDA-MB-231 breast) was 8.33 µM, the TGI (MDA-MB-435) was 28.4 µM and the TGI (MDA-N) was 25.4 µM. It also gave a TGI (MOLT-4 leukemia) of over 22.7 µM, a TGI (NCI-H226 lung) of 30.5 µM and a TGI (NCI-H23 lung) of 37.6 µM. It also gave a TGI (NCI-H460 lung) of 9.34 µM, a TGI (NCI-H522 lung) of 24.8 µM and a TGI (NCI/ADR-RES ovarian) of 28.7 µM. It also gave a TGI (OVCAR-3 ovarian) of 4.5 µM, a TGI (OVCAR-4 ovarian) of over 47 µM and a TGI (OVCAR-5 ovarian) of 40.4 µM. It also gave a TGI (OVCAR-8 ovarian) of 29.8 µM, a TGI (PC-3 prostate) of 12.7 µM and a TGI (RPMI-8226 leukemia) of 40.5 µM. For the same compound, the TGI (RXF 393 renal) was 37.8 µM, the TGI (SF-268 CNS) was 27.6 µM and the TGI (SF-295 CNS) was 25.1 µM. For the same compound, the TGI (SF-539 CNS) was 21.3 µM, the TGI (SK-MEL-2 melanoma) was 18.3 µM and the TGI (SK-MEL-28 melanoma) was 52.9 µM. It also gave a TGI (SK-MEL-5 melanoma) of 26.5 µM, a TGI (SK-OV-3 ovarian) of 23.4 µM and a TGI (SN12C renal) of 16.1 µM. For the same compound, the TGI (SNB-19 CNS) was 51.3 µM, the TGI (SNB-75 CNS) was 34.8 µM and the TGI (SR leukemia) was over 21.9 µM. For the same compound, the TGI (SW-620 colon) was over 100 µM, the TGI (T-47D breast) was over 41.8 µM and the TGI (TK-10 renal) was 10.9 µM. The TGI (U251 CNS) was 16.3 µM, the TGI (UACC-257 melanoma) was 11.1 µM and the TGI (UACC-62 melanoma) was 18.3 µM. For the same compound, the TGI (UO-31 renal) was 18.3 µM.

With COc1nc2c(N3CCCC3)nc(N3CCNCC3)nc2nc1NCc1ccccc1 the TGI (786-0 renal) was 2.66 µM, the TGI (A549 NSCLC) was 5.34 µM and the TGI (ACHN renal) was 7.01 µM. The TGI (BT-549 breast) was 4.01 µM, the TGI (CAKI-1 renal) was 8.8 µM and the TGI (CCRF-CEM leukemia) was 6.72 µM. For the same compound, the TGI (COLO 205 colon) was 1.98 µM, the TGI (DU-145 prostate) was 12.3 µM and the TGI (EKVX NSCLC) was 10.8 µM. The TGI (HCC-2998 colon) was 2790 nM, the TGI (HCT-116 colon) was 2.63 µM and the TGI (HCT-15 colon) was 3.82 µM. For the same compound, the TGI (HL-60(TB) leukemia) was 3.7 µM, the TGI (HOP-62 NSCLC) was 2.29 µM and the TGI (HOP-92 NSCLC) was 5.2 µM. For the same compound, the TGI (HS 578T breast) was 5.14 µM, the TGI (HT29 colon) was 4.65 µM and the TGI (IGROV1 ovarian) was 8.8 µM. The TGI (K-562 leukemia) was 3.58 µM, the TGI (KM12 colon) was 4.68 µM and the TGI (LOX IMVI melanoma) was 2.9 µM. The TGI (M14 melanoma) was 3.03 µM, the TGI (MALME-3M melanoma) was 3.55 µM and the TGI (MCF7 breast) was 3.46 µM. It also gave a TGI (MDA-MB-231 breast) of 3.72 µM, a TGI (MDA-MB-435) of 2.95 µM and a TGI (MDA-N) of 2.45 µM. It also gave a TGI (MOLT-4 leukemia) of 4.65 µM, a TGI (NCI-H226 lung) of 7.1 µM and a TGI (NCI-H23 lung) of 5.88 µM. It also gave a TGI (NCI-H460 lung) of 4.91 µM, a TGI (NCI-H522 lung) of 2.54 µM and a TGI (NCI/ADR-RES ovarian) of 17.1 µM. For the same compound, the TGI (OVCAR-3 ovarian) was 2.42 µM, the TGI (OVCAR-4 ovarian) was 11.5 µM and the TGI (OVCAR-5 ovarian) was 8.04 µM. The TGI (OVCAR-8 ovarian) was 10.7 µM, the TGI (PC-3 prostate) was 6.42 µM and the TGI (RPMI-8226 leukemia) was 3.96 µM. For the same compound, the TGI (RXF 393 renal) was 2.73 µM, the TGI (SF-268 CNS) was 5 µM and the TGI (SF-295 CNS) was 3.35 µM. The TGI (SF-539 CNS) was 3.21 µM, the TGI (SK-MEL-2 melanoma) was 3.11 µM and the TGI (SK-MEL-28 melanoma) was 3.92 µM. For the same compound, the TGI (SK-MEL-5 melanoma) was 2.88 µM, the TGI (SK-OV-3 ovarian) was 4.68 µM and the TGI (SN12C renal) was 4.95 µM. The TGI (SNB-19 CNS) was 4.19 µM, the TGI (SNB-75 CNS) was 4.19 µM and the TGI (SR leukemia) was 3.37 µM. It also gave a TGI (SW-620 colon) of 11.1 µM, a TGI (T-47D breast) of 3.19 µM and a TGI (TK-10 renal) of 5.78 µM. The TGI (U251 CNS) was 3.5 µM, the TGI (UACC-257 melanoma) was 3.35 µM and the TGI (UACC-62 melanoma) was 3.29 µM. It also gave a TGI (UO-31 renal) of 2.85 µM.
